Test [1] concerns muscle group (gastrocnemius, plantaris and soleus) of the immobilized right rear extremity. The experiment in a line: rat muscle function test: direct electrical stimulation of muscle group after 3 weeks' immobilization. Format: in vivo, male Wistar rats. The settings on record: oral, 1x per day for 3 weeks, as a rule 25 mg/kg, ≤-12% classified as active; for Work (performed work, right/left difference): isotonic stimulation, control approx. -25%; for Force (force under the contraction curve, right/left difference): isometric stimulation, control difference approx. 25%. The text has this: (§1) 1. Activity in the rat muscle function test
(§2) Male Wistar rats (body weight about 300 g) were kept under standard conditions with feed and water ad libitum. The right rear extremity was immobilized by fitting a kind of "shoe" to the animals under short-term anaesthesia. Two ergonomically fitted halves of the "shoe" were cast from a liquid plastic material which is also used for the production of dental prostheses, these were put onto the animal under brief anaesthesia and joined with the aid of a wire. The material is light but hard, so that the animals cannot gnaw the material, and the "shoe" can be opened at any time to examine the condition of the immobilized extremity. The two halves were moreover padded out with chamois leather in order to avoid compressions and possible injuries due to rubbing. The system also has the advantage that the angle of immobilization is standardized in all animals; this would not be possible with a plaster cast. The chosen angle allows the animals to take up a normal sitting position despite the "shoe" and also to carry the body weight using this extremity. Only complete stretching or bending of the leg is impossible.
(§3) After 3 weeks' immobilization of the right rear extremity and simultaneous oral administration of test preparations (1× per day using a stomach tube; as a rule 25 mg/kg of body weight, in carboxymethylcellulose, the animals were weighed and anaesthetized with pentobarbital (35 mg/kg i.p.). Functional parameters were measured during direct electrical stimulation of a muscle group (gastrocnemius, plantaris and soleus). This muscle group, merely called "muscle" in the following, was exposed at the ankle tendon and tied to a force transducer via the tendon.
To determine the contractile force, the muscles were stimulated isometrically, i.e. a preload of 0.5N was applied and the muscle was stimulated by means of a series of electrical pulses, which led to a maximum contraction, every 0.7 sec for 80 msec for a period of 15 min. […] The area under this contraction curve was evaluated and the difference in percent between the right atrophic and left normal muscle compared (force under the contraction curve as difference in percent (Δ%)). The difference in the control group is approximately 25%.
An isotonic muscle stimulation was used to determine the performed work of the muscle over time. In this type of measurement, the shortening of the muscle during contraction is used as a basis. To this end, a preload which corresponds to the body weight was applied to the muscles. A series of stimulation pulses (80 msec) were triggered every 3 sec and the muscle was stimulated for 15 min. The data (contraction force and distance travelled) were converted to the work performed in the unit J using an automated system. The difference in the work performed between the immobilized atrophic and the normal muscle in the control animals was approximately -25%.
Values which are positive indicate that the functional parameters of the immobilized muscle were better than those of the contralateral normal muscle.

In test [2] the test system is isolated guinea pig lung strips, Platelet activating factor (PAF). The experiment in a line: antagonist of PAF-induced contraction of isolated guinea pig lung strips. The settings on record: Cavia porcellus, read-out: Anticontractile action (lung), PAF: concentration range corresponding to the IC50 value. Type of test: cell-based. The text has this: 4. Activity as an antagonist of the contraction of isolated guinea pig lung strips
The test carried out is based on the same principle as the test indicated in the pharmacological test 3; however, lung strips are used here.
Preparation of the organ sections and experimental procedure:
The guinea pig is sacrificed under laughing gas anaesthesia. The entire pulmonary tract is exposed starting from the trachea. The lobes of the lung are cut in a circular fashion such that 3 mm wide strips are formed. The strips of the upper lobes are divided in order to obtain a total of six approximately equal size strips. The strips are suspended in the organ baths under a preload of 4 g. The nutrient solutions used are modified Krebs Henseleit solutions. When using "Platelet activating factor" (PAF) as an […], the composition of this solution corresponds to that for the agonist SP in "Test 3"; for the agonist LTD4 a Krebs Henseleit solution as in the case of the agonist KCl (Test 3) is used. 95% by volume O2, 5% by volume CO2 is used for bubbling through the bath; the bath temperature is 37° C. The experimental procedure is carried out in a therapeutically cumulative methodology, using the dosage graduations 1, 3, 6 and 10 μg/ml.
The experimental animals, organ bath, vehicles and manner of administration correspond to that stated in pharmacological test 3.
All numerical values are indicated in the unit μg/ml and relate to the concentration range of tested compound of the formula I (see example numbers in Table 1) which is necessary in order to cause a contraction which corresponds to the IC50 value.

For the next test, the system named is soleus muscle. The experiment in a line: rat muscle function test: muscle weight (atrophy of immobilized extremity). Type of test: in vivo, male Wistar rats. The following applies: oral, 1x per day for 3 weeks, as a rule 25 mg/kg, difference ≤25% classified as an effect.
Excerpt: as §1, §2
In spite of this, a significant decrease in the skeletal muscle mass (atrophy) of the immobilized extremity occurred, to be precise up to -35% in comparison with the contralateral nonimmobilized rear extremity. As the soleus muscle was the most severely affected, the changes in muscle weight after administration of preparation shown in Table 1 relate to this muscle. A difference of ≤25% between the right immobilized and left non-immobilized rear extremity was classified as an effect.
as §3

Setting [3] is: lung strips, PAF, cumulative, 37° C.

In brackets after ≈: the same amount, converted by molar mass. Like-named read-outs stand apart in the source and are kept apart here.

With `CCOP(=O)(CCCCn1cnc2c1c(=O)n(C)c(=O)n2C)OCC` [Example 1, Diethyl [4-(1,3-dimethylxanthin-7-yl)butyl]phosphonate], in test [1], the “Work (performed work, right/left difference)” value is reported as -8 Δ %. Besides, the IC50 in test [2] fell in the range of 3 to 9 µg/mL (≈ 8.06 to 24.2 µM).

In the case of `CCOP(=O)(CCCCn1cnc2c1c(=O)[nH]c(=O)n2C)OCC` [Example 3, Diethyl [4-(3-methylxanthin-7-yl)butyl]phosphonate], in test [1], the “Force (force under the contraction curve, right/left difference)” value was 0 Δ % and the “Work (performed work, right/left difference)” value is on record as 0 Δ %. In the test on soleus muscle, the “Muscle weight (right/left difference)” value was 0 Δ %.

Take `CCOP(=O)(CCCCn1cnc2c1c(=O)n(CCCCC(C)(C)O)c(=O)n2C)OCC` [Example 5]: in test [1], the “Force (force under the contraction curve, right/left difference)” value is reported as “+10 Δ %” and the “Work (performed work, right/left difference)” value is listed as “+10 Δ %”. Further, the “Muscle weight (right/left difference)” value with soleus muscle is reported as 0 Δ %.

As to `CCOCn1c(=O)c2c(ncn2CCCCP(=O)(OCC)OCC)n(C)c1=O` [Example 6, Diethyl [4-(1-ethoxymethyl-3-methylxanthin-7-yl)butyl]phosphonate], in test [1], the “Force (force under the contraction curve, right/left difference)” value is recorded as -4 Δ % and the “Work (performed work, right/left difference)” value is -4 Δ %. For the same molecule, the “Muscle weight (right/left difference)” value with soleus muscle is reported as 0 Δ %.

`CCOP(=O)(CCCCn1c(=O)c2c(ncn2CCCCP(=O)(OCC)OCC)n(C)c1=O)OCC` [Example 7, Diethyl 4-{7-[4-(diethoxyphosphoryl)butyl]-3-methylxanthin-1-yl}butyl-phosphonate]: the IC50 in test [2] fell in the range of 3 to 6 µg/mL (≈ 5.45 to 10.9 µM).

`CCOP(=O)(CCCn1cnc2c1c(=O)n(C)c(=O)n2C)OCC` [Example 8, Diethyl [3-(1,3-dimethylxanthin-7-yl)propyl]phosphonate]: in test [1], the “Force (force under the contraction curve, right/left difference)” value is reported as -11 Δ % and the “Work (performed work, right/left difference)” value is given as -7 Δ %. For the same molecule, the IC50 in test [2] fell in the range of 5 to 10 µg/mL (≈ 14 to 27.9 µM).

On to `CCCCn1c(=O)c2c(ncn2CCCCCP(=O)(OCC)OCC)n(CCCC)c1=O` [Example 10, Diethyl [5-(1,3-dibutylxanthin-7-yl)pentyl]phosphonate], for which, in test [1], the “Force (force under the contraction curve, right/left difference)” value is reported as “+1 Δ %” and the “Work (performed work, right/left difference)” value is -9 Δ %. Also, the “Muscle weight (right/left difference)” value in the test with soleus muscle is -13 Δ %.

For the molecule `CCCn1c(=O)c2c(ncn2CCCCP(=O)(OCC)OCC)n(C)c1=O` [Example 13], in test [1], the “Force (force under the contraction curve, right/left difference)” value was “+5 Δ %” and the “Work (performed work, right/left difference)” value is -3 Δ %. For the same molecule, the “Muscle weight (right/left difference)” value in the test with soleus muscle is -24 Δ %. Also, the IC50 in test [2] lay in the range of 6 to 10 µg/mL (≈ 15 to 25 µM).

As for `CCOP(=O)(OCC)C(C)(C)CCCCn1c(=O)c2c(ncn2CCOC)n(C)c1=O` [Example 22, Diethyl [5-(7-methoxyethyl-3-methylxanthin-1-yl)-1,1-dimethylpentyl]-phosphonate], in test [1], the “Force (force under the contraction curve, right/left difference)” value is reported as -3 Δ % and the “Work (performed work, right/left difference)” value was -13 Δ %. Besides, the “Muscle weight (right/left difference)” value with soleus muscle is 0 Δ %.

On to `Cn1c(=O)n(CCCCP(=O)(O)O)c(=O)c2[nH]cnc21` [Example 25, Diammonium [4-(3-methylxanthin-1-yl)butyl]phosphonate], for which, in test [1], the “Force (force under the contraction curve, right/left difference)” value was “+7 Δ %” and the “Work (performed work, right/left difference)” value is reported as -12 Δ %. In test [2] (setting [3]), the IC50 fell in the range of 5 to 15 µg/mL.

As for `CCOCn1cnc2c1c(=O)n(CCCCP(=O)(OCC)OCC)c(=O)n2C` [Example 26, Diethyl [4-(7-ethoxymethyl-3-methylxanthin-1-yl)butyl]phosphonate], in test [1], the “Force (force under the contraction curve, right/left difference)” value is recorded as -3 Δ % and the “Work (performed work, right/left difference)” value is -17 Δ %. Also, the “Muscle weight (right/left difference)” value in the test with soleus muscle is listed as -22 Δ %.

Turning to `CCOCn1cnc2c1c(=O)n(CCCCP(=O)(O)O)c(=O)n2C.N.N` [Example 28, Diammonium [4-(7-ethoxymethyl-3-methylxanthin-1-yl)butyl]phosphonate], the IC50 in test [2] (setting [3]) fell in the range of 3 to 9 µg/mL.

For the molecule `CCOP(=O)(CCCCn1c(=O)c2c(ncn2CCOC)n(C)c1=O)OCC` [Example 31, Diethyl [4-(7-methoxyethyl-3-methylxanthin-1-yl)butyl]phosphonate], the IC50 in test [2] lay in the range of 6 to 10 µg/mL (≈ 14.4 to 24 µM).

On to `CCOCn1cnc2c1c(=O)n(CCCP(=O)(OCC)OCC)c(=O)n2C` [Example 36, Diethyl [3-(7-ethoxymethyl-3-methylxanthin-1-yl)propyl]phosphonate], for which the IC50 in test [2] is 5 to 15 µg/mL (≈ 12.4 to 37.3 µM).

Consider `CCOP(=O)(CCCCn1c(=O)c2[nH]cnc2n(CC)c1=O)OCC` [Example 37, Diethyl [4-(3-ethylxanthin-1-yl)butyl]phosphonate], for which, in test [2], the IC50 was in the range of 1 to 3 µg/mL (≈ 2.69 to 8.06 µM).

With `CCOP(=O)(CCCCn1c(=O)c2c(ncn2CCOC)n(CC)c1=O)OCC` [Example 45, Diethyl [4-(3-ethyl-7-methoxyethylxanthin-1-yl)butyl]phosphonate], the IC50 in test [2] lay within 1 to 3 µg/mL (≈ 2.32 to 6.97 µM).

Regarding `CCOCn1cnc2c1c(=O)n(CCCCP(=O)(OCC)OCC)c(=O)n2Cc1ccccc1` [Example 53, Diethyl [4-(3-benzyl-7-ethoxymethylxanthin-1-yl)butyl]phosphonate], in test [1], the “Force (force under the contraction curve, right/left difference)” value is -3 Δ % and the “Work (performed work, right/left difference)” value was “+10 Δ %”. In addition, the “Muscle weight (right/left difference)” value with soleus muscle is on record as 0 Δ %. In test [2], the IC50 lay in the range of 1 to 3 µg/mL (≈ 2.03 to 6.09 µM).

With `CCOCn1cnc2c1c(=O)n(CCCCP(=O)(OCC)OCC)c(=O)n2CC` [Example 54, Diethyl [4-(7-ethoxymethyl-3-ethylxanthin-1-yl)butyl]phosphonate], the IC50 in test [2] lay within 1 to 3 µg/mL (≈ 2.32 to 6.97 µM).

Take `CCOP(=O)(CCCCCn1c(=O)c2c(ncn2CCC(C)C)n(C)c1=O)OCC` [Example 56]: in test [1], the “Force (force under the contraction curve, right/left difference)” value is reported as 0 Δ % and the “Work (performed work, right/left difference)” value is 0 Δ %.

Consider `CCCCn1c(=O)c2c(ncn2CP(C)(C)=O)n(CCCC)c1=O` [Example 67, [1-(1,3-Dibutylxanthin-7-yl)methyl]dimethylphosphine Oxide], for which, in test [1], the “Force (force under the contraction curve, right/left difference)” value was -9 Δ % and the “Work (performed work, right/left difference)” value is -10 Δ %.

Regarding `CP(C)(=O)Cn1c(=O)c2c(ncn2CC2CC2)n(-c2ccccc2)c1=O` [Example 71, [1-(7-Cyclopropylmethyl-3-phenylxanthin-1-yl)methyl]dimethylphosphine Oxide], in test [1], the “Force (force under the contraction curve, right/left difference)” value is given as “+4 Δ %” and the “Work (performed work, right/left difference)” value is on record as “+5 Δ %”. In addition, the “Muscle weight (right/left difference)” value in the test on soleus muscle is 0 Δ %.

Regarding `CCCCn1cnc2c1c(=O)n(CP(C)(C)=O)c(=O)n2CCCC` [Example 72, [1-(3,7-Dibutylxanthin-1-yl)methyl]dimethylphosphine Oxide], in test [1], the “Force (force under the contraction curve, right/left difference)” value was -2 Δ % and the “Work (performed work, right/left difference)” value is on record as “+4 Δ %”. Also, the “Muscle weight (right/left difference)” value in the test with soleus muscle is recorded as -18 Δ %.

These data come from patent US5728686A, “Alkylxanthine phosphonates and alkylxanthine phosphine oxides and their use as pharmaceuticals” (Hoechst Aktiengesellschaft, priority 1996, dated 1998).
